Data: US20040266774A1, “Amide compounds” (FUJISAWA PHARMACEUTICAL CO., LTD., priority 1999, published 2004)

Experiments:
[1] = target: T1, 5-HT2c binding site (Rattus norvegicus, UniProt P08909); assay: [3H]-mesulergine binding; conditions: displacement of [3H]-mesulergine (1 nM) in rat prefrontal cortex membranes; test drugs 10^-6 M; 30 nM spiperone present; 37° C., 30 minutes
T1 construct: ability to displace [^3H]-mesulergine in the rat prefrontal cortex; from tissue; host or cells: rat prefrontal cortex membrane suspension
T1 sequence (P08909 33-460): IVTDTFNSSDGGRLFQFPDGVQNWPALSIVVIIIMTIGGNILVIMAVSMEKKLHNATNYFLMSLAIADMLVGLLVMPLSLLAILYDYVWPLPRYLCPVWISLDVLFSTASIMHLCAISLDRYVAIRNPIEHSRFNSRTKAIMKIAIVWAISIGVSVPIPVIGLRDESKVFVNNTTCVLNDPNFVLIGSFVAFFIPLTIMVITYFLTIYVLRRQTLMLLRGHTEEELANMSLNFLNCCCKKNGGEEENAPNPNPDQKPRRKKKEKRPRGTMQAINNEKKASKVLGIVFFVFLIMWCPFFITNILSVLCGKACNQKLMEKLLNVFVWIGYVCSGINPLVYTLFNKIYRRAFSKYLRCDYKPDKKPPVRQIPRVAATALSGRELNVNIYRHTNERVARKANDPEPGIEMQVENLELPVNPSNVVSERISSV
Method: [^3H]-mesulergine Binding
The affinity of the test drugs for the 5-HT2c binding site can be determined by assessing their ability to displace [^3H]-mesulergine in the rat prefrontal cortex. The method employed was similar to that of Pazos et al, 1984.
The membrane suspension ([…]) was incubated with [^3H]-mesulergine (1 nM) in Tris HCl buffer containing CaCl2 4 mM and ascorbic acid 0.1% (pH 7.4) at 37° C. for 30 minutes. Non-specific binding was measured in the presence of mianserin (1 μM). 30 nM spiperone was used to prevent binding to 5-HT2A sites. Test drugs (10^−6 M) were added in a volume of 100 μl. The total assay volume was 1000 μl. Incubation was stopped by rapid filtration using a Brandel cell harvester and radioactivity measured by scintillation counting.
The IC50 values were determined using a four parameter logistic program (DeLean 1978) and the pKi (the negative logarithm of the inhibition constant) calculated from the Cheng Prusoff equation where: [formula]
C=concentration of [^3H]-mesulergine
Kd=affinity of mesulergine for 5-HT2c binding site.

Row | SMILES | Inhibition (%) [1] [%] | melting point [°C]
1 | Cn1ccc2cc(NC(=O)Nc3cccnc3)ccc21 [(1), N-(1-Methyl-1H-indol-5-yl)-N′-(3-pyridyl)urea, reference compound] | 21 | 
2 | O=C(Nc1cccc(-n2ccnc2)c1)c1csc(-c2ccccc2)n1 [Example 25, N-(3-(imidazol-1-yl)phenyl)-2-phenylthiazole-4-carboxamide] |  | 131 to 134

Now from value to compound:

Row | Inhibition (%) [1] [%] | melting point [°C] | SMILES
3 | 74 |  | O=C(Nc1cccc(-c2cccnc2)c1)c1cccc2c1Cc1ccccc1-2 [(2), N-(3-(pyridin-3-yl)phenyl)-9H-fluorene-1-carboxamide]
4 | 92 |  | O=C(Nc1cccc(-c2cncnc2)c1)c1cccc2c1Cc1ccccc1-2 [(3), N-(3-(pyrimidin-5-yl)phenyl)-9H-fluorene-1-carboxamide]
5 | 64 |  | O=C(Nc1cccc(-c2ccnnc2)c1)c1cccc2c1Cc1ccccc1-2 [(4), N-(3-(pyridazin-4-yl)phenyl)-9H-fluorene-1-carboxamide]
